Measurements from ChEMBL document CHEMBL3880386, “Combination comprising the MEK inhibitor N-{3-[3-cyclopropyl-5-(2-fluoro-4-iodo- phenylamino)-6,8-dimethyl-2,4,7-trioxo-3,4,6,7-tetrahydro-2H-pyrido[4,3-d]pyrimidin-1-yl]phenyl}acetamide and the Akt inhibitor N-{(1S)-2-amino-1-[(3-fluorophenyl)methyl]ethyl}-5-chloro-4-(4-chloro-1- …” (2014).

How the values were obtained:
[1] = (§1) Growth inhibition of human COR-L23 cells at 1:10 molar ratio of compound in presence of N-{3-[3-cyclopropyl-5-(2-fluoro-4-iodo-phenylamino)-6,8-dimethyl- 2,4,7-trioxo-3,4,6,7-tetrahydro-2H-pyrido[4,3-d]pyrimidin-1-yl]phenyl}acetamide incubated for 72 hrs by Cell-titer-Glo reagent based assay; format: functional; conditions: COR-L23, 72 h
[2] = Growth inhibition of human Calu6 cells at 1:10 molar ratio of compound in presence of N-{3-[3-cyclopropyl-5-(2-fluoro-4-iodo-phenylamino)-6,8-dimethyl- 2,4,7-trioxo-3,4,6,7-tetrahydro-2H-pyrido[4,3-d]pyrimidin-1-yl]phenyl}acetamide incubated for 72 hrs by Cell-titer-Glo reagent based assay; format: functional; conditions: Calu-6, 72 h
[3] = Growth inhibition of human RKO cells at 1:10 molar ratio of compound in presence of N-{3-[3-cyclopropyl-5-(2-fluoro-4-iodo-phenylamino)-6,8-dimethyl- 2,4,7-trioxo-3,4,6,7-tetrahydro-2H-pyrido[4,3-d]pyrimidin-1-yl]phenyl}acetamide incubated for 72 hrs by Cell-titer-Glo reagent based assay; format: functional
[4] = as §1, with “HT-29” for “COR-L23”, “cells assessed combination index” for “cells”; format: functional
[5] = Growth inhibition of human HCT8 cells assessed combination index at 1:10 molar ratio of compound in presence of N-{(1S)-2-amino-1-[(3-fluorophenyl)methyl]ethyl}-5-chloro-4-(4-chloro-1-methyl-1H-pyrazol-5-yl)-2-thiophenecar- boxamide incubated for 72 hrs by Cell-titer-Glo reagent based assay; format: functional, HCT-8
[6] = Growth inhibition of human SW900 cells at 1:10 molar ratio of compound in presence of N-{(1S)-2-amino-1-[(3-fluorophenyl)methyl]ethyl}-5-chloro-4-(4-chloro-1-methyl-1H-pyrazol-5-yl)-2-thiophenecar- boxamide incubated for 72 hrs by Cell-titer-Glo reagent based assay; format: functional; conditions: SW900, 72 h
[7] = Growth inhibition of human SW837 cells at 1:10 molar ratio of compound in presence of N-{(1S)-2-amino-1-[(3-fluorophenyl)methyl]ethyl}-5-chloro-4-(4-chloro-1-methyl-1H-pyrazol-5-yl)-2-thiophenecar- boxamide incubated for 72 hrs by Cell-titer-Glo reagent based assay; format: functional; conditions: SW837, 72 h
[8] = Growth inhibition of human MV522 cells at 1:10 molar ratio of compound in presence of N-{(1S)-2-amino-1-[(3-fluorophenyl)methyl]ethyl}-5-chloro-4-(4-chloro-1-methyl-1H-pyrazol-5-yl)-2-thiophenecar- boxamide incubated for 72 hrs by Cell-titer-Glo reagent based assay; format: functional; conditions: MV522, 72 h
[9] = Growth inhibition of human DLD1 cells at 1:10 molar ratio of compound in presence of N-{(1S)-2-amino-1-[(3-fluorophenyl)methyl]ethyl}-5-chloro-4-(4-chloro-1-methyl-1H-pyrazol-5-yl)-2-thiophenecar- boxamide incubated for 72 hrs by Cell-titer-Glo reagent based assay; format: functional; conditions: DLD-1, 72 h
[10] = Growth inhibition of human NCI-H727 cells assessed combination index at 1:10 molar ratio of compound in presence of N-{(1S)-2-amino-1-[(3-fluorophenyl)methyl]ethyl}-5-chloro-4-(4-chloro-1-methyl-1H-pyrazol-5-yl)-2-thiophenecar- boxamide incubated for 72 hrs by Cell-titer-Glo reagent based assay; format: functional
[11] = Growth inhibition of human NCI-H1792 cells assessed combination index at 1:10 molar ratio of compound in presence of N-{(1S)-2-amino-1-[(3-fluorophenyl)methyl]ethyl}-5-chloro-4-(4-chloro-1-methyl-1H-pyrazol-5-yl)-2-thiophenecar- boxamide incubated for 72 hrs by Cell-titer-Glo reagent based assay; format: functional
[12] = Growth inhibition of human COLO205 cells assessed combination index at 1:10 molar ratio of compound in presence of N-{(1S)-2-amino-1-[(3-fluorophenyl)methyl]ethyl}-5-chloro-4-(4-chloro-1-methyl-1H-pyrazol-5-yl)-2-thiophenecar- boxamide incubated for 72 hrs by Cell-titer-Glo reagent based assay; format: functional, COLO 205
[13] = Growth inhibition of human T84 cells at 1:10 molar ratio of compound in presence of N-{(1S)-2-amino-1-[(3-fluorophenyl)methyl]ethyl}-5-chloro-4-(4-chloro-1-methyl-1H-pyrazol-5-yl)-2-thiophenecar- boxamide incubated for 72 hrs by Cell-titer-Glo reagent based assay; format: functional; conditions: T84, 72 h

SMILES	IC50 [1]	IC50 [2]	IC50 [3]	CI [4]	CI [5]	IC50 [6]	IC50 [7]	IC50 [8]	IC50 [9]	CI [10]	CI [11]	CI [12]	IC50 [13]
Cn1ncc(Cl)c1-c1cc(C(=O)N[C@H](CN)Cc2cccc(F)c2)sc1Cl [AFURESERTIB]	368 nM	31 nM	54 nM	0.95	–	–	–	–	–	–	–	–	–
CC(=O)Nc1cccc(-n2c(=O)n(C3CC3)c(=O)c3c(Nc4ccc(I)cc4F)n(C)c(=O)c(C)c32)c1 [TRAMETINIB]	–	–	–	–	0.39	72 nM	25 nM	1 nM	93 nM	1.09	0.73	0.88	30 nM
